Experimental data taken from patent US10874727B2, “Inducible regulatory t-cell generation for hematopoietic transplants” (The Trustees of the University of Pennsylvania, priority 2008, dated 2020).
Entries after “also recorded” stand apart in the source; their conditions may differ.

Legend:
[1] = tested on: PBMNCs; test: Suppression by expanded Tregs (ratios of Tregs to PBMNCs); format: cell-based, human; conditions: TGFβ 10 ng/ml added to the cells
Description: (§1) Adding rapa, which is an mTOR inhibitor, (labeled as +) reduced mean expansion rates by 30-fold with beads resulting in ≤10-fold mean expansion rates by day 14.

[2] = tested on: CD4+25−45RA+ cells; test: Foxp3 expression at day 14 after Decitibine ± TGFβ induction and re-stimulation with anti-CD3 loaded KT64/86; format: cell-based, human; conditions: for Foxp3 expression: Decitibine 5 μM day 7 ± TGFβ 10 ng/ml day 0, re-stimulated day 7
Method: The next set of experiments was designed to determine whether re-stimulation of iTreg increases the percentage of Foxp3++ cells. nTreg (CD4^+25^++) and CD4^+25^−45 RA^+ cells were purified from peripheral blood (PB) using magnetic beads and the cells were stimulated with anti-CD3 loaded KT64/86 cells (K562 cells modified to express an Fc receptor CD64 and CD86). nTreg were cultured in the presence of IL-2 (300 U/ml) and Rapamycin (109 nM) while CD4^+25^− cells were cultured with IL-2 alone, or were induced to become Treg by the addition of Decitibine (5 μM at day 7) and Rapamycin (109 nM at day 7). Portions of the CD4^+25^−45 RA^+ and Decitibine iTreg cultures were also re-stimulated on day 7 with anti-CD3 loaded KT64/86 cells. After a total of 14 days, cells were harvested and the expression of CD4, CD25, and Foxp3 was measured using flow cytometry. FIG. 6 summarizes the results in the context of percentage of CD4+ gated cells expressing low (Foxp3+) or high (Foxp3++) levels of Foxp3.
The next set of experiments was designed to determine whether TGFβ could synergize the effects of Decitibine to induce Foxp3 expression in the cells. Briefly, nTreg (CD4^+25^++) and CD4^+25^−45 RA^+ cells were purified from peripheral blood using magnetic beads and stimulated with anti-CD3 loaded KT64/86 cells. nTreg were cultured in the presence of IL-2 (300 U/ml) and Rapamycin (109 nM) while CD4^+25^− cells were cultured with IL-2 alone, or were induced to become Treg by the addition of Decitibine (5 μM at day 7) in the presence or absence of TGFβ (10 ng/ml, day 0). All samples were re-stimulated on day 7 with anti-CD3 loaded KT64/86 cells. After a total of 14 days, cells were harvested and expression of CD4, CD25, and Foxp3 was measured using flow cytometry.

[3] = tested on: CD4+25+ Tregs; test: Expansion of CD4+25+ Tregs with anti-CD3/28 microbeads or KT64/86 cells plus IL-2, with or without rapa; format: cell-based, human
Description: as §1

[4] = tested on: CD4+25−45RA+ T cells; test: Expansion of CD4+25−45RA+ T cells in bead- or cell-based artificial APC cultures; design: species or system human
Method: (§2) For initial studies, to ensure inducible Treg (iTreg) conversion was being examined and not natural Treg (nTreg) expansion, CD4^+25^−45 RA^+ T cells are isolated from ficolled buffy coat cells by negative selection (CD8, CD11b, CD16, CD19, CD36, CD56 CD25) followed by CD45RA positive selection using beads. Cells are cultured in X-Vivo-15 or trypt-free media, as indicated, along with human ABneg serum (10%) and L-glutamine. rIL-2 (300 U/ml: Chiron) is added on day 2 and with re-feeds.
(§3) To simulate IDO effects, cells were cultured in low tryp+KYN using KYN at 10 μM+trypt at 1 μM until day 7 then 5 μM trypt beyond day 7 to support expansion after iTreg “imprinting” has occurred. Decitibine was added at 1-5 μM (final) to day 3 cultures. Cultures were expanded with anti-CD3/28 mAb-loaded, irradiated KT32 (FcR+) cells. Anti-CD3/28 beads (3 beads:1 cell) or 100 Gy irradiated, anti-CD3 (OKT3) loaded KT64/86 cells (1 KT cell:2 CD4^+25^− T cells) are added on day 0. Cell density is maintained at 0.2-2×10^6/ml by 50% vol/vol re-feeds. By 10 days, diluent cultured cells expanded about 30-fold, decibine about 11 fold and low tryp/KYN about 5-fold; CD4+CD127loFoxP3hi cells were 1%, 16%, and 13%, respectively (FIG. 4; upper, FoxP3hi; lower box, FoxP3int,lo). […] In studies using umbilical cord blood (UCB) nTregs, day 11 cultures re-stimulated with KT cells expanded an additional 20-fold compared to no re-stimulation.
The next set of experiments were designed to compare the effects of a HDACi in a bead- or cell-based artificial antigen-presenting cell system (KT32) for generating iTregs (FIGS. 5B and 5C). […] The cells were cultured for 3 days and SAHA added a single time at the indicated concentrations, and analyzed 7 days later (day 10) for Foxp3 expression (FIG. 5B). […] The cells were cultured for 3 days and Trichostatin A added a single time at the indicated concentrations, and analyzed 7 days later (day 10) for Foxp3 expression.
The next set of experiments were designed to compare the effects of a demethylating agent in a bead- or cell-based artificial antigen-presenting cell system (KT32) for generating iTregs (FIGS. 5D and 5E). […] The cells were cultured for 3 days and Decitibine added a single time at the indicated concentrations, and analyzed 7 days later (day 10) for Foxp3 expression (FIG. 5D). […] The cells were cultured for 3 days and 5-Azacytidine added a single time at the indicated concentrations, and analyzed 7 days later (day 10) for Foxp3 expression (FIG. 5E).
The next set of experiments were designed to compare the effects of the combination of an HDACi with a demethylating agent in a bead- and cell-based antigen-presenting cell system (FIG. 5F). […] On day 7, a single dose of Decitibine (1 μM) was added and cultures analyzed 3 days later (day 10) for Foxp3 expression.

[5] = tested on: CD4+25−45RA+ T cells; test: iTreg generation: FoxP3 flow phenotype of cultured CD4+25−45RA+ T cells at day 10; format: cell-based, human; conditions: for iTreg generation / induction of CD4+127loFoxP3hi cells by day 10: single agents: rapa, TGFb 10 ng/ml, SAHA 300 nM, TSA 100 nM
Method: as §2
In order to assay for the presence of non-Tregs and nTregs, multi-color phenotyping can be employed pre- and post-isolation and on days 7, 10, 14, 21 for both non-Tregs and nTregs (CD4/25/127lo/FoxP3) for co-expression of adhesion molecules (e.g., CD62L; LFA-1), chemokine receptors (e.g., CCR4-9; CXCR3), and cytokines (IL2, IL17, TNFa, IL10). Phosphorylated-Stat5 and p-Akt can be analyzed at 15′ post-stimulation with PMA/ionomycin.
as §3
The next set of experiments were designed to compare the effects of a HDACi in a bead- or cell-based artificial antigen-presenting cell system (KT32) for generating iTregs (FIGS. 5B and 5C). Purified human naïve T cells (CD4^+, CD25^−, CD45RA^+) were stimulated with KT32 (K562 engineered to express human CD32) loaded with anti-CD3 and CD28 antibodies. The cells were cultured for 3 days and SAHA added a single time at the indicated concentrations, and analyzed 7 days later (day 10) for Foxp3 expression (FIG. 5B). Purified human naïve T cells (CD4^+, CD25^−, CD45RA^+) were stimulated with KT32 (K562 engineered to express human CD32) loaded with anti-CD3 and CD28 antibodies. The cells were cultured for 3 days and Trichostatin A added a single time at the indicated concentrations, and analyzed 7 days later (day 10) for Foxp3 expression.
The next set of experiments were designed to compare the effects of the combination of an HDACi with a demethylating agent in a bead- and cell-based antigen-presenting cell system (FIG. 5F). Purified human naïve T cells (CD4^+, CD25^−, CD45RA^+) were stimulated with clinical grade anti-CD3/28 beads or with KT32 (K562 engineered to express human CD32) loaded with anti-CD3 and CD28 antibodies. On day 3 of culture, the specified HDACi were added. On day 7, a single dose of Decitibine (1 μM) was added and cultures analyzed 3 days later (day 10) for Foxp3 expression.

[6] = tested on: CD4+25− T cells; test: iTreg generation from CD4+25− T cells cultured with allogeneic TLR9 activated pDCs; format: cell-based, human; conditions: IDO inhibition by 1MT in pDC cultures
Description: (§4) CD4^+25^− T cells, when cultured with allogeneic TLR9 activated allogeneic plasmacytoid dendritic cells (pDCs), but not B-cells, lead to the generation of iTregs, CD4^+25^+FoxP3^+ suppressor cells (FIG. 2). It was also observed that iTregs (closed), but not T cells primed to TLR activated B cells (open squares), were potently suppressive of a naïve MLR culture (x-axis are x 104; MLR used 105 naïve T cells; FIG. 3). […] Since IDO catabolizes tryptophan into kynurenines (KYN), it is believed that iTregs can be generated in B cell cultures using KYN.

[7] = tested on: CD8+ T cell; test: iTreg suppression of CD8+ T cell proliferation by CFSE dye-dilution; format: cell-based, human; conditions: 1:16 ratio
Method: as §3
In vitro potency of expanded iTregs vs nTregs may be assayed for suppression in MLR and anti-CD3 mAb driven, CD8+ CFSE T cell proliferation assays.

[8] = tested on: naïve MLR culture; test: MLR suppression by iTregs generated in B cell cultures using KYN; format: cell-based, human; conditions: KYN added to allogeneic B cell cultures (50 μM elsewhere in the source); not blocked by 1MT
Description: as §4
It has been shown that CD4^+25^− T-cells exposed to allogeneic TLR9 activated plasmacytoid dendritic cells (pDCs), but not B-cells, leads to the generation of iTregs (Moseman et al., 2004, J Immunol 173:4433-42), CD4^+25^+FoxP3^+ suppressor cells, a process dependent upon the enzyme indoleamine 2,3-dioxygenase (IDO) that catabolizes tryptophan. […] Because obtaining high numbers of non-malignant B-cells or pDCs from leukemia/lymphoma patients would be difficult, low trypt/KYN conditions in an artificial antigen-presenting cell expansion system was examined. In considering strategies for iTreg generation, experiments were designed to focus on molecular features preferentially associated with nTregs vs naïve or T effector cells. […]

## transforming growth factor-beta [TGFβ]
[1]
  suppression: did not increase suppression
[2]
  Foxp3 expression: synergizes with Decitibine to induce Foxp3 expression

## CO[C@H]1C[C@@H]2CC[C@@H](C)[C@@](O)(O2)C(=O)C(=O)N2CCCC[C@H]2C(=O)O[C@H]([C@H](C)C[C@@H]2CC[C@@H](O)[C@H](OC)C2)CC(=O)[C@H](C)/C=C(\C)[C@@H](O)[C@@H](OC)C(=O)[C@H](C)C[C@H](C)/C=C/C=C/C=C/1C [rapa, rapamycin]
[3]; Rapa added to KT64/86 driven cultures
  reduction of mean expansion: 10 fold
[3]; rapa added, anti-CD3/28 beads
  reduction of mean expansion rates: 30 fold
[3]; rapa added, anti-CD3/28 beads, day 14
  mean expansion rates by day 14: ≤ 10 fold

## CC(/C=C/C(=O)NO)=C\[C@@H](C)C(=O)c1ccc(N(C)C)cc1 [TSA, trichostatin A]
[4]; cell-based cultures, HDACi day 3, decitibine day 7, diluent 20-fold
  Day 10 expansions: 15 fold
[5]; bead expanded cultures, day 10, diluent 1.7
  CD4+127loFoxP3hi: 1.6%
[5]; bead expanded cultures, day 10, diluent 21.8%
  FoxP3int/lo: 15.4%
[5]
  iTreg generation / induction of CD4+127loFoxP3hi cells by day 10: No iTreg generation

## Cn1cc(C[C@H](N)C(=O)O)c2ccccc21 [1MT, 1-methyl-tryptophan]
[6]
  iTreg conversion: prevented iTreg conversion

## O=C(CCCCCCC(=O)Nc1ccccc1)NO [SAHA, suberoylanilide hydroxamic acid]
[4]; SAHA 300 nM on day 3
  T cell expansion: did not inhibit T cell expansion
[4]; SAHA 100 μM on day 0
  toxicity in T cell culture: toxic
[5]
  iTreg generation / induction of CD4+127loFoxP3hi cells by day 10: did not result in iTregs; also recorded: No iTreg generation

## Nc1ncn([C@H]2C[C@H](O)[C@@H](CO)O2)c(=O)n1 [decitibine, 5-aza-2′-deoxycitidine]
[4]; anti-CD3/28 mAb-loaded KT32 cells, decitibine 1-5 μM day 3, KYN 10 μM + trypt 1 μM until day 7 then 5 μM
  expansion by 10 days: about 11 fold
[5]; by 10 days, KT32 cultures, decitibine 1-5 μM day 3 or low tryp+KYN
  CD4+CD127loFoxP3hi cells: 16%
[7]
  iTreg suppression of CD8+ T cell proliferation: 41%
[2]; Decitibine 5 μM and Rapamycin 109 nM at day 7, re-stimulation on day 7
  percentage of Foxp3++ cells: significantly increased
[2]
  Foxp3 expression: some Foxp3 expression

## Nc1ccccc1C(=O)CC(N)C(=O)O (stereo not shown) [KYN, kynurenine]
[8]
  MLR suppression / suppressive iTregs: potent MLR suppression; also recorded: potently suppressive iTregs
